Source: patent US10954262B2, “Tunicamycin analogues” (Oxford University Innovation Limited, priority 2017, dated 2021)
Values after ≈ are worked out from the molar mass of the structure shown.

Columns and labels:
[1] = tested on: Bacillus subtilis (EC1524); assay: Kirby-Bauer disc diffusion susceptibility test; format: cell-based; details: for Antibacterial activity in disc diffusion test: 5 μg per disc
Protocol: (§1) Bioactivity was assessed using the Kirby-Bauer disc diffusion susceptibility test. Oxoid Blank Discs were impregnated with the desired test substance. A 0.5 McFarland standard inoculum was prepared by adding 3-5 single colonies to 10 mL MH broth in a 15 mL falcon tube and standardised to 0.5 McFarland standard. The inoculum was used within 10 minutes. A sterile cotton swab was dipped in the inoculum, gently pressed against the side of the tube to remove excess liquid, and generously streaked on MH agar plate to fully cover the plate. The impregnated disc was carefully placed on the agar. The plate was incubated at 35° C. for 20 hrs overnight. A digital calliper was used to measure the zone diameter. The recorded zone diameter is an average of three zone diameters measured of one zone.
(§2) Each 6 mm disc was impregnated with 5 μg of the relevant compound (TM, A, B, C, D, or any of E1 to E7), and the diffusion zone recorded after 20 hours.
(§3) Results are shown for E2 to E7 and TM. Values quoted are zone diameters, with larger numbers indicating higher antibacterial activity.

[2] = tested on: Bacillus cereus (ATCC11778); assay: Kirby-Bauer disc diffusion susceptibility test; format: cell-based; details: 5 μg per disc
Protocol: as §1, §2, §3

[3] = tested on: HepG2 liver cells; assay: Cell proliferation assay / cell morphology (cytotoxicity); format: cell-based, human; details: for Minimum lethal dose: HepG2; for viable cells: human
Protocol: (§4) Underlying scaffolds A, B, C and D and lipid-varied analogues E1 to E7 were assayed for cytotoxicity towards human liver cells (Hep2G) and human kidney cells (HEK293).
(§5) Mammalian cells were cultured in DMEM medium supplemented with 10% heat inactivated fetal bovine serum (FBS, v/v). The cultures were maintained in a humidified incubator at 37° C. in 5% CO2/95% air. FBS was reduced to 2% for the cell proliferation assay.
(§6) In sterile 96-well plate, each well was seeded with 1×10^5 cells. The cells were then grown confluent overnight in 100 μL DMEM with 10% FBS. The medium was replenished with DMEM with 2% FBS and added vehicle control or test substance the next day. For test substance in methanol, stock was added to 25 μL of DMEM with 2% FBS or PBS and placed in a laminar flow hood to let the methanol evaporate (about 1-3 hrs). Once the methanol has evaporated, DMEM with 2% FBS was added to final volume of 100 μL of desired test concentration. […] Cells were grown for additional 24 hrs. The cell viability was determined by using a Promega CellTiter 96 AQueous One Solution Cell Proliferation Assay System following the manufacturer's protocol.

[4] = tested on: HEK293 kidney cells; assay: as above; format: cell-based, human; details: for Minimum lethal dose: HEK293; for viable cells: human
Protocol: as §4, §5, §6

[5] = tested on: Pseudomonas aeruginosa (ATCC27853); assay: microbe, parasite or virus in culture; format: cell-based
[6] = tested on: Bacillus cereus (ATCC11778); assay: microbe, parasite or virus in culture; format: cell-based; details: for MIC: MH broth, 35° C., 20-24 hours; for IC50: OD600 dose-response curve; for MBC: additional 20 hours on MH agar
[7] = tested on: Bacillus subtilis (EC1524); assay: microbe, parasite or virus in culture; format: cell-based; details: for MIC: MH broth, 35° C., 20-24 hours; for IC50: OD600 dose-response curve; for MBC: additional 20 hours on MH agar
[8] = tested on: Pseudomonas aeruginosa (ATCC27853); assay: Kirby-Bauer disc diffusion susceptibility test; format: cell-based; details: 6 mm disc, 5 μg
Protocol: as §1, §2
Underlying scaffolds A, B, C and D and lipid-varied analogues E1 to E7 were assayed for potency against Pseudomonas aeruginosa (ATCC27853), according to the methods of Example 2. Results of the Kirby-Bauer disc diffusion susceptibility test conducted using Pseudomonas aeruginosa (ATCC27853) as a test organism are shown in FIG. 2 and in Table 3. MIC, MBC and IC50 values were also obtained as in Example 2.

Row | Structure (SMILES) | Antibacterial activity in disc diffusion test [1] | Antibacterial activity in disc diffusion test [2] | Minimum lethal dose [3] [µg/mL] | viable cells [3] [%] | Minimum lethal dose [4] [µg/mL] | viable cells [4] [%] | IC50 [5] [µg/mL] | MBC [5] [µg/mL] | MIC [5] [µg/mL] | MIC [6] [µg/mL] | IC50 [6] [µg/mL] | MBC [6] [µg/mL] | MIC [7] [µg/mL] | IC50 [7] [µg/mL] | MBC [7] [µg/mL] | zone of inhibition at 5 µg/disc ([1]; 6 mm disc impregnated with 5 μg, 20 hours, 35° C., read-out: Diffusion distance (zone diameter)) [mm] | Diffusion distance [8] [mm]
1 | CC(=O)N[C@H]1C(O)O[C@H](C[C@@H](O)[C@@H]2O[C@@H](n3ccc(=O)[nH]c3=O)[C@H](O)[C@@H]2O)C(O)C1O (stereo partly shown) [A, N-acetyl-tunicamyl-uracil] | completely inactive | completely inactive | – | – | – | – | – | – | – | – | – | – | – | – | – | – | –
2 | CC(C)(C)OC(=O)NC1C(O)[C@H](O)C(CO)O[C@@H]1OC1O[C@H](C[C@@H](O)[C@@H]2O[C@@H](n3ccc(=O)[nH]c3=O)[C@H](O)[C@@H]2O)C(O)C(O)[C@H]1NC(=O)OC(C)(C)C (stereo partly drawn) [B, 10′,2″-Di-N-Boc-α-D-glucosamine-(1″-11′)-tunicamyl Uracil] | completely inactive | completely inactive | – | – | – | – | – | – | – | – | – | – | – | – | – | – | –
3 | CC(=O)NC1C(O)[C@H](O)C(CO)O[C@@H]1OC1O[C@H](C[C@@H](O)[C@@H]2O[C@@H](n3ccc(=O)[nH]c3=O)[C@H](O)[C@@H]2O)C(O)C(O)[C@H]1NC(C)=O (stereo partly drawn) [C, α-D-N-acetylglucosamine-(1″-11′)-N-acetyl Tunicamyl Uracil] | completely inactive | completely inactive | – | – | – | – | – | – | – | – | – | – | – | – | – | – | –
4 | CC(C)=CCC[C@H](C)CC(=O)NC1C(OC2OC(C[C@@H](O)[C@H]3O[C@@H](n4ccc(=O)[nH]c4=O)[C@H](O)[C@@H]3O)C(O)C(O)[C@H]2NC(=O)C[C@@H](C)CCC=C(C)C)OC(CO)[C@@H](O)C1O (stereo partly shown) [Compound E1, Di-N-citronoyl-tunicamycin] | – | – | >400 | > 75 | >400 | > 75 | 70.3 (≈ 80.7 µM) | > 400 | 200 (≈ 230 µM) | 100 (≈ 115 µM) | 6.29 (≈ 7.22 µM) | > 200 | 6.25 (≈ 7.18 µM) | 0.415 (≈ 0.476 µM) | > 100 | – | –
5 | CCCCCCC(=O)NC1C(OC2OC(C[C@@H](O)[C@H]3O[C@@H](n4ccc(=O)[nH]c4=O)[C@H](O)[C@@H]3O)C(O)C(O)[C@H]2NC(=O)CCCCCC)OC(CO)[C@@H](O)C1O (stereo partly shown) [Compound E2, Di-N-heptanoyl tunicamycin] | – | – | >400 | > 75 | >400 | > 75 | 62.4 (≈ 79 µM) | > 400 | 100 (≈ 126 µM) | 100 (≈ 126 µM) | 13.3 (≈ 16.9 µM) | > 200 | 6.25 (≈ 7.9 µM) | 3.39 (≈ 4.29 µM) | > 50 | 10 | 7
